Values after ≈ are worked out from the molar mass of the structure shown. Active and inactive are the calls of the source. The calls are words filed in the database; no cut-off is given here.
How the values were obtained:
[1] = molecular target: T1, Acetylcholinesterase (Bos taurus) (UniProt P23795); experiment: Inhibition of bovine AChE
T1 sequence (whole entry): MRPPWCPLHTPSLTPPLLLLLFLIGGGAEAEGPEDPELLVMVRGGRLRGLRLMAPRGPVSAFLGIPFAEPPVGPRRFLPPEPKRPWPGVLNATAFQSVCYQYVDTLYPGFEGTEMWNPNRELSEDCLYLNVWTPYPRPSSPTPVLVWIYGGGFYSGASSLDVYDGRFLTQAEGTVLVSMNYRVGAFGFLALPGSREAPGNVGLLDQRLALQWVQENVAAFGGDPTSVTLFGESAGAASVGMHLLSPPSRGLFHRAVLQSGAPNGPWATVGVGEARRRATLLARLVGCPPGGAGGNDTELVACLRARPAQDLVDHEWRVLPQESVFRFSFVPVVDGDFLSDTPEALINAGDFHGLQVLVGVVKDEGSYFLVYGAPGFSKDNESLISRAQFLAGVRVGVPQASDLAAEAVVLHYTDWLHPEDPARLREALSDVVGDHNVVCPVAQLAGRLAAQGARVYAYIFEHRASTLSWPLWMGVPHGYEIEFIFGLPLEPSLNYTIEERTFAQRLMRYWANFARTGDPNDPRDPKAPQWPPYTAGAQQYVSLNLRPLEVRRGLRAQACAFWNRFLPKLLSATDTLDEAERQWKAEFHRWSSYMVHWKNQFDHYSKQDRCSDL

Plasmodium falciparum [2] = experiment: Antimalarial activity after 72 hrs against chloroquine-sensitive Plasmodium falciparum D6 in erythrocytes at […] by LDH reporter assay; format: functional, organism-based
[3] = test system: Mycobacterium intracellulare; experiment: Antibacterial activity against Mycobacterium intracellular by alamar blue assay; format: functional, organism-based
Staphylococcus aureus [4] = experiment: Antibacterial activity against Staphylococcus aureus; format: functional, organism-based
Plasmodium falciparum [5] = experiment: Antimalarial activity after 72 hrs against chloroquine-resistant Plasmodium falciparum W2 in erythrocytes at […] by LDH reporter assay; format: functional, organism-based
Leishmania donovani [6] = experiment: Antileishmanial activity against Leishmania donovani at 40 ug/mL after 72 hrs by alamar blue assay; format: functional, organism-based
Cryptococcus neoformans = experiment: Antifungal activity against Cryptococcus neoformans; format: functional, organism-based
Vero [7] = experiment: Cytotoxicity against african green monkey Vero cells at 4.76 ug/mL by neutral red assay; format: cell-based; details: chlorocebus sabaeus
[8] = test system: Human immunodeficiency virus 1; experiment: Antiviral activity against HIV1 3B assessed as reverse transcriptase activity by enzyme immunoassay; format: functional, organism-based; details: Human immunodeficiency virus 1, 3B
[9] = molecular target: Beta-secretase 1 (Homo sapiens) (UniProt P56817); experiment: Inhibition of human recombinant BACE1 by FRET-based assay
Beta-secretase 1 (Homo sapiens), sequence (P56817 whole entry): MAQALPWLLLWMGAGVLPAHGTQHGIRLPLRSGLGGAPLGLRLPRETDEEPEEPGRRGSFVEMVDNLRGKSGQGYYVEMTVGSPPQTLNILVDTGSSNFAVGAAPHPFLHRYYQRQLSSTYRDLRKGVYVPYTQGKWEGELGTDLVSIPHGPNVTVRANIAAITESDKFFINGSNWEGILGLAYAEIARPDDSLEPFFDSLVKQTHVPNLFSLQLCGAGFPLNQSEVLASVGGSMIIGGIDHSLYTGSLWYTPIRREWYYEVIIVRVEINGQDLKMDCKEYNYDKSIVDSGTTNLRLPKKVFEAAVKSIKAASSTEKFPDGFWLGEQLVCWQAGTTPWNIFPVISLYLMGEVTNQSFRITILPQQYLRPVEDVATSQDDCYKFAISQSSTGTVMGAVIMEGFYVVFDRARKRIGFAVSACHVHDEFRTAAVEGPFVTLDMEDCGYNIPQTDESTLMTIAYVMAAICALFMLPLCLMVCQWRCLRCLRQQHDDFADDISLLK

Staphylococcus aureus [10] = experiment: Antibacterial activity against methicillin-resistant Staphylococcus aureus; format: functional, organism-based
Leishmania donovani [11] = experiment: Antileishmanial activity against Leishmania donovani after 72 hrs by alamar blue assay; format: functional, organism-based
Vero [12] = experiment: Cytotoxicity against african green monkey Vero cells by neutral red assay; format: cell-based; details: chlorocebus sabaeus
Plasmodium falciparum [13] = experiment: Antimalarial activity after 72 hrs against chloroquine-resistant Plasmodium falciparum W2 in erythrocytes by LDH reporter assay; format: functional, organism-based; details: W2, 72 h
Plasmodium falciparum [14] = experiment: Antimalarial activity after 72 hrs against chloroquine-sensitive Plasmodium falciparum D6 in erythrocytes by LDH reporter assay; format: functional, organism-based; details: D6, 72 h
[15] = test system: Mycobacterium tuberculosis; experiment: Antituberculosis activity against Mycobacterium tuberculosis H37Rv after 24 hrs by alamar blue assay; format: functional
[16] = molecular target: Glycogen synthase kinase-3 beta (Homo sapiens) (UniProt P49841); experiment: Inhibition of human recombinant GSK3-beta assessed as incorporation of [33P]gammaATP into G2S peptide at 25 uM
Glycogen synthase kinase-3 beta (Homo sapiens), sequence (P49841 whole entry, looked up): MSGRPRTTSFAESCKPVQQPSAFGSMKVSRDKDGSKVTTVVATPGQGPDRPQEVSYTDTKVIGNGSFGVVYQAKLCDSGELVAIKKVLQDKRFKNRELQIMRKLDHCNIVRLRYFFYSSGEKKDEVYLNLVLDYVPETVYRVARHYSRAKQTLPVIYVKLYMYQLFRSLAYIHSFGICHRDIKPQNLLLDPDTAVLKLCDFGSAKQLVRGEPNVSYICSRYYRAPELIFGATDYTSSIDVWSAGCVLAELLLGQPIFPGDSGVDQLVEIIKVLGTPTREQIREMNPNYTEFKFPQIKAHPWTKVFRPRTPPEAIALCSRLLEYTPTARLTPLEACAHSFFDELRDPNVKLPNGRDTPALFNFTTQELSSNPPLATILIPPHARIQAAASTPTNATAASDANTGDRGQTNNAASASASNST

[17] = molecular target: Glycogen synthase kinase-3 beta (Homo sapiens) (UniProt P49841); experiment: Inhibition of GSK3-beta in human SH-SY5Y cells assessed as inhibition of tau phosphorylation at Ser396 at 5 uM after 24 hrs by ELISA sandwich method; format: cell-based
SH-SY5Y = experiment: Cytotoxicity against human SH-SY5Y cells at 5 uM; format: cell-based
[18] = test system: Voltage-gated calcium channel; experiment: Blocking of calcium channel in human SH-SY5Y cells assessed as inhibition of KCL depolarization-induced cytosolic calcium increase at 1 uM; format: cell-based

## O=C1CCCN2[C@@H]3[C@@]45CN6CCCC/C=C\CC[C@@]3(C=C(c3nccc7c3[nH]c3ccccc37)[C@@H]4CC6)O[C@]2(CC1)C5
[1]
  Activity: inactive
Plasmodium falciparum [2]
  Activity: inactive
[3]
  Activity: inactive
Staphylococcus aureus [4]
  Activity: inactive
Plasmodium falciparum [5]
  Activity: inactive
Leishmania donovani [6]
  Activity: inactive
Cryptococcus neoformans
  Activity: inactive
Vero [7]
  Activity: Non-toxic
[8]
  IC50: 17.5 µg/mL (≈ 31.1 µM)
[9]
  Activity: inactive
Staphylococcus aureus [10]
  Activity: inactive

## O=C1CC[C@H]2C[C@]34CN5CCCC/C=C\CC[C@@]6(C=C(c7nccc8c7[nH]c7ccccc78)[C@@H]3CC5)O[C@H](CC1)N2[C@H]46
[1]
  Activity: inactive
Plasmodium falciparum [2]
  Activity: inactive
[3]
  Activity: inactive
Staphylococcus aureus [4]
  Activity: inactive
Plasmodium falciparum [5]
  Activity: inactive
Cryptococcus neoformans
  Activity: inactive
Vero [7]
  Activity: Non-toxic
[9]
  Activity: inactive
Staphylococcus aureus [10]
  Activity: inactive
Leishmania donovani [11]
  IC50: 18 µg/mL (≈ 32 µM)
  IC90: 40 µg/mL (≈ 71.1 µM)

## O=C1CCCN2[C@@H](CC1)C[C@]13CN4CCCC/C=C\CC[C@](O)(C=C(c5nccc6c5[nH]c5ccc(O)cc56)[C@@H]1CC4)[C@H]23
[1]
  Activity: inactive
[3]
  IC50: 3.5 µg/mL (≈ 6.03 µM)
Vero [12]
  IC50: 4.3 µg/mL (≈ 7.4 µM)
Plasmodium falciparum [13]
  IC50: 0.87 µg/mL (≈ 1.5 µM)
Cryptococcus neoformans
  IC50: 5.5 µg/mL (≈ 9.47 µM)
Plasmodium falciparum [14]
  IC50: 0.78 µg/mL (≈ 1.34 µM)
Vero [7]
  Activity: Non-toxic
[9]
  Activity: inactive
[15]
  MIC: 0.4 µg/mL (≈ 0.689 µM)
Leishmania donovani [11]
  IC50: 2.5 µg/mL (≈ 4.3 µM)
  IC90: 4.3 µg/mL (≈ 7.4 µM)

## O=C1CCCN2[C@@H]3[C@@]45CN6CCCC/C=C\CC[C@@]3(C=C(c3nccc7c3[nH]c3ccc(O)cc37)[C@@H]4CC6)O[C@]2(CC1)C5
[1]
  Activity: inactive
Plasmodium falciparum [2]
  Activity: inactive
[3]
  Activity: inactive
Staphylococcus aureus [4]
  Activity: inactive
Plasmodium falciparum [5]
  Activity: inactive
Leishmania donovani [6]
  Activity: inactive
Cryptococcus neoformans
  Activity: inactive
Vero [7]
  Activity: Non-toxic
[9]
  Activity: inactive
Staphylococcus aureus [10]
  Activity: inactive

## O=C1CCCN2[C@H]3[C@]45CN6CCCC/C=C\CC[C@]3(C=C(c3nccc7c3[nH]c3c(O)cccc37)[C@H]4CC6)O[C@]2(CC1)C5
[1]
  Activity: inactive
[3]
  Activity: inactive
Staphylococcus aureus [4]
  Activity: inactive
Plasmodium falciparum [13]
  IC50: 1.1 µg/mL (≈ 1.9 µM)
Leishmania donovani [6]
  Activity: inactive
Cryptococcus neoformans
  Activity: inactive
Plasmodium falciparum [14]
  IC50: 0.84 µg/mL (≈ 1.45 µM)
Vero [7]
  Activity: Non-toxic
[8]
  IC50: 14.9 µg/mL (≈ 25.7 µM)
[9]
  Activity: inactive
[15]
  MIC: 12.5 µg/mL (≈ 21.6 µM)
Staphylococcus aureus [10]
  Activity: inactive

## Oc1cccc2c1[nH]c1c(C3=C[C@@]4(O)CC/C=C\CCCCN5CC[C@@H]3[C@]3(CC6/C=C\CCCCN6[C@H]34)C5)nccc12 (some centres undefined)
[1]
  Activity: inactive
[3]
  IC50: 1 µg/mL (≈ 1.77 µM)
[16]
  inhibition: 86.7%
Staphylococcus aureus [4]
  IC50: 0.9 µg/mL (≈ 1.59 µM)
Vero [12]
  IC50: 1.1 µg/mL (≈ 1.95 µM)
Plasmodium falciparum [13]
  IC50: 0.008 µg/mL (≈ 0.0142 µM)
Cryptococcus neoformans
  IC50: 3 µg/mL (≈ 5.31 µM)
Plasmodium falciparum [14]
  IC50: 0.006 µg/mL (≈ 0.0106 µM)
[17]
  Activity: Active
[8]
  IC50: 0.59 µg/mL (≈ 1.04 µM)
[9]
  Activity: inactive
[15]
  MIC: 0.9 µg/mL (≈ 1.59 µM)
Staphylococcus aureus [10]
  IC50: 4 µg/mL (≈ 7.08 µM)
SH-SY5Y
  Activity: Non-toxic
[18]
  inhibition (INH): 20%
Leishmania donovani [11]
  IC50: 6.2 µg/mL (≈ 11 µM)
  IC90: 11 µg/mL (≈ 19.5 µM)

## C1=C\CC[C@]23CN4CCCC/C=C\CC[C@@]5(O[C@H]5[C@@H](c5nccc6c5[nH]c5ccccc56)[C@@H]2CC4)[C@@H]3NCCCC/1
[1]
  Activity: inactive
[9]
  Activity: inactive

## O=CC1=C[C@@]2(O)CC/C=C\CCCCN3CC[C@@H]1[C@]1(C[C@@H]4/C=C\CCCCN4[C@H]12)C3
[16]
  inhibition: 0%

## O=CC1=C[C@]23CC/C=C\CCCCN4CC[C@@H]1[C@]1(C[C@@H]5/C=C\CCC[C@@H](O2)N5[C@H]13)C4
[1]
  Activity: inactive
[9]
  Activity: inactive

## Oc1cccc2c1[nH]c1c([C@H]3[C@@H]4CCN5CCCC/C=C\CC[C@@]6(O[C@@H]36)[C@@H]3NCCCC/C=C\CC[C@@]34C5)nccc12
[1]
  Activity: inactive
[9]
  Activity: inactive

From ChEMBL document CHEMBL1142603, “Manzamine B and E and ircinal A related alkaloids from an Indonesian Acanthostrongylophora sponge and their activity against infectious, tropical parasitic, and Alzheimer's diseases” (J Nat Prod, 2006)
